{"source": "patent US20240165097A1", "about": "“PHARMACEUTICAL COMPOSITION FOR THE TREATMENT OF ALZHEIMER'S DISEASE OR DEMENTIA” (Heptares Therapeutics Limited, priority 2021, published 2024)", "tested_on": "patients with mild-to-moderate AD", "assay": "Example D: EEG and evoked response potentials", "assay_type": "in vivo, human", "procedure": "Exploratory pharmacodynamic endpoints (Cogstate tests and EEG/evoked response potential [ERP] biomarkers) were evaluated at screening (practice sessions) and baseline visits, and on Day 28±1. While this study was not powered to detect PD effects of small to moderate ESs, the study sample size provided approximately 80% power to detect a large ES of 0.97 for these endpoints using a significance level of 0.10.\nBrain activity was measured at rest using EEG, and during presentation of auditory stimuli using ERPs. The following EEG and ERP parameters were examined because of their sensitivities in detecting brain activity abnormalities at rest and during cognitive processing in patients with AD (Dierks T, Ihl R, Frolich L, Maurer K. Psychiatry Res. 1993; 50(3):151-162; Hedges D, Janis R, Mickelson S, Keith C, Bennett D, Brown B L. Clin EEG Neurosci. 2016; 47(1):48-55; Pekkonen E. Audiol Neurootol. 2000; 5(3-4):216-224): • Resting state power in the delta, theta, alpha, beta and gamma frequency bands measured by EEG activity during eyes open and eyes closed conditions (3 minutes each). • ERP markers (approximately 45 minutes) • Mismatch negativity (MMN; sensory gating/change detection)—amplitude and latency • P300-P3a and P3b (attention and working memory updating)—amplitude and latency • 40 Hz auditory steady-state response (ASSR; gamma oscillations and synchrony)—gamma-band evoked power and phase locking\nEEG and ERP markers were quantified using the following paradigms: • Resting state paradigm (6 minutes): EEGs were recorded while patients were sitting with their eyes open (3 minutes) and closed (3 minutes) for frequency band-power analyses in the delta, theta, alpha, beta, and gamma frequency bands. Primary dependent measure was mean normalised power at Cz electrode in the eyes open and closed conditions. • Passive auditory oddball paradigm (23 minutes): Patients were instructed to ignore auditory stimuli while viewing a silent movie. Patients listened to a pseudorandom sequence of 85 dB tones (5 msec rise/fall times, 500 msec stimulus onset asynchrony); 85% were standards (50 msec, 1 kHz) and 15% were deviants that differed in both duration and pitch (125 msec, 1.5 kHz). Event-related potentials were generated in response to standard and deviant waveforms. Deviant minus standard difference waves were generated. The primary dependent measures were MMN amplitude and latency at Fz and FCComp electrodes (an average of frontal electrodes). • 40 Hz ASSR paradigm (8 minutes): Gamma steady-state responses were assessed in response to 1 ms 85 dB white noise clicks presented in 500 ms trains at a frequency of 40 Hz, with an inter-train interval of 1 second. A total of 500 click trains were presented. The primary dependent measure was gamma-band—evoked power and gamma phase locking at Fz and FCComp electrodes. • Active auditory oddball paradigm (11 minutes): Patients listened to a pseudorandom sequence of 85 dB tones (5 msec rise/fall times, 1500 msec stimulus onset asynchrony); 80% were standards (50 msec, 1 kHz) and 20% were targets (500 msec, 0.5 kHz). Patients were instructed to press a button when they heard target stimuli. ERPs were generated in response to target tones (P3b). The primary dependent measures were P3b amplitude and latency at CPComp electrodes (an average of central and parietal electrodes).\nPatient data were collected from a 64-electrode cap onto a qualified and validated study system operated by site personnel who were specifically trained and certified for the study. The EEGs obtained at each patient visit were reviewed qualitatively by the study EEG expert (who remained blinded to dose allocation) and feedback was provided directly to the relevant site personnel on an ongoing basis and within 2 days of the assessment, to minimise issues from inter-site variability and to ensure the highest possible levels of consistency and reproducibility with respect to the EEG procedures. […]", "data": [{"smiles": "CCOC(=O)N1C2CCC1CC(N1CCC3(CC1)CNC(=O)C3)C2", "note": "(stereo not drawn) [HTL0018318, ethyl 3-(3-oxo-2,8-diazaspiro[4.5]dec-8-yl)-8-azabicyclo[3.2.1]octane-8-carboxylate]", "values": [{"measurement": "MMN amplitude at Fz electrode, ES", "setting": "5 mg, Day 28", "result": "−0.84"}, {"measurement": "MMN amplitude at Fz electrode, LSM difference from placebo", "setting": "5 mg, Day 28", "result": "−0.82", "unit": "uV"}, {"measurement": "peak P3b latency at CPComp electrodes, ES", "setting": "5 mg, Day 28", "result": "−0.81"}, {"measurement": "peak P3b latency at CPComp electrodes, LSM difference from placebo", "setting": "5 mg, Day 28", "result": -38, "unit": "ms"}, {"measurement": "MMN amplitude at Fz electrode, ES", "setting": "15 mg, Day 28", "result": "−0.64"}, {"measurement": "MMN amplitude at Fz electrode, LSM difference from placebo", "setting": "15 mg, Day 28", "result": "−0.63", "unit": "uV"}, {"measurement": "P3a amplitude at Fz electrode, ES", "setting": "15 mg, Day 28", "result": "−0.73"}, {"measurement": "P3a amplitude at Fz electrode, LSM difference from placebo", "setting": "15 mg, Day 28", "result": "−0.84", "unit": "uV"}, {"measurement": "delta power at Cz electrode, eyes open, ES", "setting": "15 mg, Day 28", "result": 0.75}, {"measurement": "delta power at Cz electrode, eyes open, LSM difference from placebo", "setting": "15 mg, Day 28", "result": 3.8}, {"measurement": "peak P3b latency at CPComp electrodes", "setting": "15 mg, Day 28", "result": "no significant decrease"}, {"measurement": "P3b mean amplitude at CPComp electrodes, ESs", "setting": "across all 3 doses", "result": "0.22-0.44"}, {"measurement": "MMN, mean ES", "setting": "all HTL0018318 doses", "result": 0.6}, {"measurement": "P3b amplitude, ES", "setting": "all HTL0018318 doses", "result": 0.33}, {"measurement": "P3b latency, ES", "setting": "all HTL0018318 doses", "result": 0.42}, {"measurement": "eyes open delta power, mean ES", "setting": "all HTL0018318 doses", "result": 0.52}, {"measurement": "peak MMN latency", "setting": "all doses", "result": "No statistically significant improvements"}, {"measurement": "40 Hz ASSR gamma-band evoked power or phase locking at Fz electrode", "setting": "any HTL0018318 dose", "result": "no significant effects"}]}]}
